According to patent publication US20040010001A1, “Methods and compositions for modulating cell proliferation and cell death” (priority 1999, published 2004):
Like-named read-outs stand apart in the source and are kept apart here.

Tests used:
Format in all cases: cell-based
[1] = system: rat primary tumors, histocultures; test: Drug effect in histocultures of rat primary tumors (inhibition of 3H-thymidine incorporation)
[2] = system: rat primary tumor cells, monolayers; test: Drug effect in monolayers of rat primary tumor cells (inhibition of bromodeoxyuridine incorporation); details: 96 h, read-out: Concentration producing 50% inhibition
[3] = system: rat lymph node metastasis cells, monolayers; test: Drug effect in monolayers of rat lymph node metastasis cells (inhibition of bromodeoxyuridine incorporation); details: 96 h, read-out: Concentration producing 50% inhibition
[4] = system: rat lung metastasis cells, monolayers; test: Drug effect in monolayers of rat lung metastasis cells (inhibition of bromodeoxyuridine incorporation); details: 96 h, read-out: Concentration producing 50% inhibition
[5] = system: Human prostate PC3 tumor cells; test: aFGF/bFGF-induced resistance and reversal by suramin, sulforhodamine B assay
Description: The experimental conditions are described briefly below. […] Cell number was measured using the sulforhodamine B assay which measures the total protein concentration. […] The FGF-induced resistance was dependent on the FGF concentrations, with a higher resistance at higher FGF concentrations.

[6] = system: Human breast BC19 (subline of MCF7 transfected with mdr1); test: FGF-induced resistance, inhibition of BrdU incorporation; details: read-out: Drug concentration needed to produce 50% inhibition
In short: (§1)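 Monolayers were pretreated for 96 h with human recombinant aFGF and/or bFGF in medium with 1% FBS (protein adjusted to 2 mg/ml, renewed every other day) and then drug-treated for 96 h. Antiproliferative effect was read as inhibition of BrdU incorporation.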

Human breast MCF7 = test: as above; details: read-out: Drug concentration needed to produce 50% inhibition
In short: as §1

Human colon HT-29 = test: as above; details: read-out: Drug concentration needed to produce 50% inhibition
In short: as §1

Human lung A459 = test: as above; details: read-out: Drug concentration needed to produce 50% inhibition
In short: as §1

Human pharynx FaDu = test: as above; details: read-out: Drug concentration needed to produce 50% inhibition
In short: as §1

Human prostate PC3 = test: as above; details: Homo sapiens, read-out: Drug concentration needed to produce 50% inhibition
In short: as §1

Rat prostate MAT-LyLu = test: as above; details: read-out: Drug concentration needed to produce 50% inhibition
In short: as §1

[7] = no suramin, relative to control
[8] = 96 h, r-aFGF + r-bFGF 0.04 ± 1 ng/ml
[9] = 96 h, r-aFGF + r-bFGF 0.08 ± 1 ng/ml
[10] = 96 h, r-aFGF + r-bFGF 0.64 ± 1 ng/ml
[11] = 96 h, r-aFGF + r-bFGF 1 ± 1 ng/ml

IC50 ([2]; Monolayers (passage 0)): 10.7 ± 0.5 nM
IC50 ([2]; Monolayers (passage 1)): 10.5 ± 0.5 nM
IC50 ([2]; Monolayers (passage 2)): 10.3 ± 0.8 nM
IC50 ([2]; Monolayers (passage 3)): 10 ± 0.2 nM
IC50 ([3]; Monolayers (passage 0)): 32.9 ± 3.6 nM
IC50 ([3]; Monolayers (passage 1)): 21.8 ± 0.9 nM
IC50 ([3]; Monolayers (passage 2)): 15 ± 0.9 nM
IC50 ([3]; Monolayers (passage 3)): 11.7 ± 0.3 nM
IC50 ([4]; Monolayers (passage 0)): 92.4 ± 6.9 nM
IC50 ([4]; Monolayers (passage 1)): 28.1 ± 0.7 nM
IC50 ([4]; Monolayers (passage 2)): 21.5 ± 3.7 nM
IC50 ([4]; Monolayers (passage 3)): 11.4 ± 0.7 nM
IC50 ([5]; Homo sapiens, read-out: IC50, Control (drug treatment only, without FGF treatment), No suramin, drug 96 hours): 2.16 nM
IC50 ([5]; Homo sapiens, read-out: IC50, aFGF 0.3 ng/ml + bFGF 1 ng/ml, No suramin, FGF pretreatment 96 hours, drug 96 hours): 6.53 nM
IC50 ([5]; Homo sapiens, read-out: IC50, aFGF 1 ng/ml + bFGF 3 ng/ml, No suramin, FGF pretreatment 96 hours, drug 96 hours): 12.1 nM
IC50 ([5]; read-out: IC50, Control (without FGF treatment), Suramin, 15 μM, drug 96 hours with 15 μM suramin): 2.13 nM
IC50 ([5]; read-out: IC50, aFGF 0.3 ng/ml + bFGF 1 ng/ml, With suramin, FGF pretreatment 96 hours, drug 96 hours with 15 micromolar suramin): 1.88 nM
IC50 ([5]; read-out: IC50, aFGF 1 ng/ml + bFGF 3 ng/ml, With suramin, FGF pretreatment 96 hours, drug 96 hours with 15 micromolar suramin): 2.01 nM
IC50 ([6]; r-bFGF 0 ng/ml): 59.6 nM
IC50 ([6]; r-bFGF 0.01 ng/ml): 112 nM
IC50 ([6]; r-bFGF 0.1 ng/ml): 183 nM
IC50 ([6]; r-bFGF 1 ng/ml): 236 nM
IC50 (Human breast MCF7; MCF7, r-bFGF 0 ng/ml): 0.32 nM
IC50 (Human breast MCF7; MCF7, r-bFGF 0.01 ng/ml): 0.45 nM
IC50 (Human breast MCF7; MCF7, r-bFGF 0.1 ng/ml): 0.84 nM
IC50 (Human breast MCF7; MCF7, r-bFGF 1 ng/ml): 1.3 nM
IC50 (Human colon HT-29; HT-29, 96 h, r-aFGF + r-bFGF 0 ng/ml): 2.2 nM
IC50 (Human colon HT-29; HT-29, 96 h, r-aFGF + r-bFGF 0.04 ± 1 ng/ml): 2 nM
IC50 (Human colon HT-29; HT-29, 96 h, r-aFGF + r-bFGF 0.08 ± 1 ng/ml): 2 nM
IC50 (Human colon HT-29; HT-29, 96 h, r-aFGF + r-bFGF 0.16 ± 1 ng/ml): 2.1 nM
IC50 (Human colon HT-29; HT-29, 96 h, r-aFGF + r-bFGF 0.64 ± 1 ng/ml): 6.2 nM
IC50 (Human colon HT-29; HT-29, r-aFGF 0 ng/ml): 2.1 nM
IC50 (Human colon HT-29; HT-29, r-aFGF 1 ng/ml): 2 nM
IC50 (Human colon HT-29; HT-29, r-aFGF 10 ng/ml): 1.9 nM
IC50 (Human colon HT-29; HT-29, r-aFGF 50 ng/ml): 2 nM
IC50 (Human colon HT-29; HT-29, r-aFGF + r-bFGF 1 ± 1 ng/ml): 10.8 nM
IC50 (Human colon HT-29; HT-29, r-bFGF 0 ng/ml): 2.1 nM
IC50 (Human colon HT-29; HT-29, r-bFGF 1 ng/ml): 2 nM
IC50 (Human colon HT-29; HT-29, r-bFGF 10 ng/ml): 1.9 nM
IC50 (Human colon HT-29; HT-29, r-bFGF 50 ng/ml): 2 nM
IC50 (Human lung A459; A459, r-bFGF 0 ng/ml): 0.87 nM
IC50 (Human lung A459; A459, r-bFGF 1 ng/ml): 0.9 nM
IC50 (Human lung A459; A459, r-bFGF 10 ng/ml): 1.07 nM
IC50 (Human lung A459; A459, r-bFGF 50 ng/ml): 1.22 nM
IC50 (Human pharynx FaDu; 96 h, r-aFGF + r-bFGF 0 ng/ml): 0.82 nM
IC50 (Human pharynx FaDu; [8]): 0.84 nM
IC50 (Human pharynx FaDu; [9]): 0.82 nM
IC50 (Human pharynx FaDu; 96 h, r-aFGF + r-bFGF 0.16 ± 1 ng/ml): 0.81 nM
IC50 (Human pharynx FaDu; 96 h, r-aFGF + r-bFGF 0.32 ± 1 ng/ml): 0.84 nM
IC50 (Human pharynx FaDu; [10]): 2.01 nM
IC50 (Human pharynx FaDu; [11]): 3.5 nM
IC50 (Human pharynx FaDu; r-aFGF 0 ng/ml): 0.82 nM
IC50 (Human pharynx FaDu; r-aFGF 1 ng/ml): 0.8 nM
IC50 (Human pharynx FaDu; r-aFGF 10 ng/ml): 0.82 nM
IC50 (Human pharynx FaDu; r-aFGF 50 ng/ml): 0.83 nM
IC50 (Human pharynx FaDu; r-bFGF 0 ng/ml): 0.77 nM
IC50 (Human pharynx FaDu; r-bFGF 1 ng/ml): 0.79 nM
IC50 (Human pharynx FaDu; r-bFGF 10 ng/ml): 0.74 nM
IC50 (Human pharynx FaDu; r-bFGF 50 ng/ml): 0.82 nM
IC50 (Human prostate PC3; 96 h, r-aFGF + r-bFGF 0 ng/ml): 1.2 nM
IC50 (Human prostate PC3; [8]): 1.2 nM
IC50 (Human prostate PC3; [9]): 2.1 nM
IC50 (Human prostate PC3; [10]): 5.8 nM
IC50 (Human prostate PC3; [11]): 6.9 nM
IC50 (Human prostate PC3; 96 h, r-aFGF + r-bFGF): 3.1 nM
IC50 (Human prostate PC3; r-aFGF 0 ng/ml): 1.2 nM
IC50 (Human prostate PC3; r-aFGF 1 ng/ml): 1.2 nM
IC50 (Human prostate PC3; r-aFGF 10 ng/ml): 1.1 nM
IC50 (Human prostate PC3; r-aFGF 50 ng/ml): 1.2 nM
IC50 (Human prostate PC3; r-bFGF 0 ng/ml): 1.2 nM
IC50 (Human prostate PC3; r-bFGF 1 ng/ml): 1.2 nM
IC50 (Human prostate PC3; r-bFGF 10 ng/ml): 2.1 nM
IC50 (Human prostate PC3; r-bFGF 50 ng/ml): 3.3 nM
IC50 (Rat prostate MAT-LyLu; r-bFGF 0 ng/ml): 12.7 nM
IC50 (Rat prostate MAT-LyLu; r-bFGF 1 ng/ml): 16.3 nM
IC50 (Rat prostate MAT-LyLu; r-bFGF 10 ng/ml): 47.8 nM
IC50 (Rat prostate MAT-LyLu; r-bFGF 50 ng/ml): 214 nM
SMILES: CC(=O)O[C@H]1C(=O)[C@@]2(C)[C@H]([C@H](OC(=O)c3ccccc3)[C@]3(O)C[C@H](OC(=O)[C@H](O)[C@@H](NC(=O)c4ccccc4)c4ccccc4)C(C)=C1C3(C)C)[C@]1(OC(C)=O)CO[C@@H]1C[C@@H]2O [Paclitaxel]
inhibition at 10 µM [1]: < 50%
IC30 (concentration producing 30% inhibition) ([1]; 24 h, read-out: Concentration producing 50% inhibition (data shown are the concentrations that produced 30% inhibition)): > 14 nM
Resistance, Folds, aFGF 0.3 ng/ml + bFGF 1 ng/ml [5, 7]: 3.02 Folds
Resistance, Folds, aFGF 1 ng/ml + bFGF 3 ng/ml [5, 7]: 5.59 Folds
